Drawing on ChEMBL document CHEMBL3817844 (Medchemcomm, 2016), this text covers EC50 and IC50 for two compounds.

Experiment [1] concerns Schistosoma mansoni. Briefly: Antischistosomal activity against adult female Schistosoma mansoni BH derived from infected Swiss mouse assessed as reduction in motility measured immediately after treatment by automated image-based analysis. In kind it is functional, organism-based.
The subject of experiment [2] is Schistosoma mansoni. Put plainly: Antischistosomal activity against newly transformed Schistosoma mansoni BH assessed as decrease in viability after 72 hrs by resazurin-based spectrophotometric assay. It is filed as functional, organism-based. A general note: The colour change of resazurin is a common sign of viable cells or microbes.
Experiment [3] has as its system Schistosoma mansoni. Put plainly: Antischistosomal activity against adult female Schistosoma mansoni BH derived from infected Swiss mouse assessed as reduction in motility measured after 48 hrs by automated image-based analysis. It is filed as functional, organism-based.
Experiment [4] is described as follows: Inhibition of Schistosoma mansoni SERT.
Experiment [5] concerns Schistosoma mansoni. Put plainly: Antischistosomal activity against adult male Schistosoma mansoni BH derived from infected Swiss mouse assessed as reduction in motility measured after 24 hrs by automated image-based analysis. It is filed as functional, organism-based.
The test system of experiment [6] is Schistosoma mansoni. Put plainly: Antischistosomal activity against adult female Schistosoma mansoni BH derived from infected Swiss mouse assessed as reduction in motility measured after 72 hrs by automated image-based analysis. It is filed as functional, organism-based.
The test system of experiment [7] is Schistosoma mansoni. Briefly: Antischistosomal activity against adult female Schistosoma mansoni BH derived from infected Swiss mouse assessed as reduction in motility measured after 24 hrs by automated image-based analysis. It is filed as functional, organism-based.
Experiment [8] deals with Schistosoma mansoni. Briefly: Antischistosomal activity against adult male Schistosoma mansoni BH derived from infected Swiss mouse assessed as reduction in motility measured after 48 hrs by automated image-based analysis. In kind it is functional, organism-based.
Experiment [9] relates to Schistosoma mansoni. Put plainly: Antischistosomal activity against adult male Schistosoma mansoni BH derived from infected Swiss mouse assessed as reduction in motility measured after 72 hrs by automated image-based analysis. In kind it is functional, organism-based.
For experiment [10], the system named is Schistosoma mansoni. Put plainly: Antischistosomal activity against adult male Schistosoma mansoni BH derived from infected Swiss mouse assessed as reduction in motility measured immediately after treatment by automated image-based analysis. It is filed as functional, organism-based.

As to `Fc1ccc([C@@H]2CCNC[C@H]2COc2ccc3c(c2)OCO3)cc1` [PAROXETINE], the EC50 – broadly, the concentration needed to bring the measured effect to its halfway point – was determined as 17.4 µM in experiment [1]; 11.5 µM in experiment [3]; 5.1 µM in experiment [5]; 11.9 µM in experiment [6]; 9.9 µM in experiment [7]; 3.8 µM in [8]. Also, the concentration giving a half-maximal response (EC50) amounted to 2.7 µM in [9] and 23.5 µM in experiment [10]. For the same compound, the IC50 (usually the concentration at which inhibition is half-maximal) in experiment [2] was determined as 2.5 µM; in [4], 0.09 µM.

Consider `O=C(C1CCCCC1)N1CC(=O)N2CCc3ccccc3C2C1` (stereo unspecified) [PRAZIQUANTEL], for which the EC50 in experiment [1] amounted to 0.13 µM; in [5] it was 0.12 µM; in experiment [6] it was 0.66 µM; in experiment [7], 0.3 µM; in [8] it was 0.13 µM; in experiment [10], 0.11 µM.
